{"source": "paper PMC6594751", "about": "“The mechanism of error induction by the antibiotic viomycin provides insight into the fidelity mechanism of translation” (eLife, 2019)", "key": {"[1]": {"tested_on": "peptidyl-tRNA in the ribosomal A site", "conditions": "ref Holm et al., 2016; Peske et al., 2004; cited from earlier work"}, "[2]": {"tested_on": "TC^H84A on 70S ribosomes displaying cognate UUC or near-cognate CUC codon", "assay": "EF-Tu^H84A chase experiments (ternary complex dissociation from the A site)", "type": "biochemical, E. coli", "conditions": "37°C", "from_the_text": "To address whether viomycin also stabilizes TCs in the A site during initial codon selection, we estimated the rate of dissociation of both cognate and near-cognate tRNAs in TC (TC ^H84A) with a GTPase-deficient mutant of EF-Tu (EF-Tu^H84A). In this EF-Tu mutant, an essential histidine in the G-domain has been replaced by alanine ([Daviter et al., 2003]), but formation of TC ^H84A is unhindered and the mutant TC carries out all partial reactions during initial codon selection, excluding GTP hydrolysis ([Daviter et al., 2003]; [Gromadski and Rodnina, 2004]). Initiated 70S ribosomes with f[^3H]Met-tRNA^fMet in the P site and a cognate (UUC) or near-cognate (CUC) codon in the A site were equilibrated with TC^H84A containing Phe-tRNAGAAPhe and GTP in the presence of varying concentrations of viomycin. TC^H84As were chased from the A site by addition of GTPase proficient TC, containing WT EF-Tu (EF-Tu^WT) and either Phe-tRNAGAAPhe or Leu-tRNAGAGLeu2 , whichever was cognate for the codon in the A site. The dissociation rate for TC^H84A s from the A site, defined as the inverse of the average dissociation time, was then estimated from the rate of f[^3H]Met-Phe or f[^3H]Met-Leu formation (supplementary methods).\nAll experiments were performed at 37°C in HEPES-polymix buffer (95 mM KCl, 5 mM NH4Cl, 0.5 mM CaCl2, 8 mM putrescine, 1 mM spermidine, 5 mM Mg(OAc)2, 1 mM dithioerythritol and 5 mM HEPES pH 7.5). All reaction mixes contained 10 mM phosphoenolpyruvate (PEP), 1 µg/ml pyruvate kinase (PK) and 0.1 µg/ml myokinase (MK). His-tagged initiation factors IF1, IF2 and IF3, elongation factor Ts, and phenylalanine and leucine aminoacyl tRNA-synthetases were purified using nickel-affinity chromatography (HisTrap GE Healthcare). Wild-type elongation factor Tu was prepared as in [Ehrenberg et al. (1990)]. All protein concentrations were determined using the Bradford assay. Ribosomes (E. coli MRE600) and f[^3H]Met-tRNA^fMet were prepared according to [Antoun et al. (2004)]; ribosome concentration was determined spectrophotometrically. XR7 mRNAs with coding sequences AUG-UUC, AUG-CUC, AUG-UAC and AUG-UUA were prepared as in [Borg and Ehrenberg (2015)], see theGV Appendix I for full mRNA sequences. tRNA^Phe was prepared as in [Holm et al. (2016)]. [^3H]Met and [^3H]GTP were from Perkin-Elmer, viomycin was from USP, all other chemicals were from either Merck or Sigma-Aldrich.\nThe wild type tufA gene from E. coli Mg1655 was cloned in the pET21b vector with a C-terminal hexahistidine tag. Using this construct, the Histidine at position 84 was changed to Alanine by following the standard protocol from the QIAGEN site directed mutagenesis kit. Successful mutation was confirmed by DNA sequencing. […]"}, "[3]": {"tested_on": "mRNA translocation", "conditions": "ref Holm et al., 2016; Modolell and Vázquez, 1977; cited from earlier work"}, "[4]": {"tested_on": "tRNA selection", "design": "method as in Marrero et al., 1980", "conditions": "ref Marrero et al., 1980; cited from earlier work"}}}
{"substance": "viomycin", "values": [{"measurement": "stabilization of peptidyl-tRNA in the ribosomal A site", "setting": "[1]", "value": "strongly stabilize peptidyl-tRNA in the ribosomal A site"}, {"measurement": "rate of TC^H84A dissociation, cognate, 1 µM viomycin", "setting": "[2]; cognate UUC codon, 1 µM viomycin (1.21 ± 0.088 in the absence of viomycin), pH 7.5", "value": "0.616 ± 0.044", "unit": "s⁻¹"}, {"measurement": "rate of TC^H84A dissociation, cognate, 10 µM viomycin", "setting": "[2]; cognate UUC codon, 10 µM viomycin (1.21 ± 0.088 in the absence of viomycin), pH 7.5", "value": "0.198 ± 0.0275", "unit": "s⁻¹"}, {"measurement": "apparent near-cognate TC^H84A dissociation rate, 200 µM viomycin", "setting": "[2]; near-cognate CUC codon, 200 µM viomycin, pH 7.5", "value": "0.209 ± 0.066", "unit": "s⁻¹"}, {"measurement": "Ki", "setting": "[2]; tRNA^Phe(GAA) reading cognate codon UUC, linear fit of Equation 6 to dissociation mean times (Figure 2B), read-out: KI^c (viomycin concentration at which rate of viomycin rebinding to TC-bound ribosome equals rate of TC dissociation unhindered by rebinding)", "value": "9.4 ± 3.3", "unit": "µM"}, {"measurement": "effect on rate of mRNA translocation", "setting": "[3]", "value": "reduces the rate of mRNA translocation"}, {"measurement": "effect on fidelity of tRNA selection", "setting": "[4]", "value": "impairs the fidelity of tRNA selection"}]}
